According to patent US20030139609A1, “Aziridinyl quinone antitumor agents based on indoles and cyclopent[b]indoles” (priority 2001, published 2003):
Several values for one entry are separate records, joined by “and”; a condition that tells them apart may be missing. Equal entries are not always repeated.

Tests used:
600 bp calf thymus DNA = experiment: DNA reductive alkylation by catalytically reduced aziridinyl quinones; assay type: biochemical; conditions: for DNA alkylation percentage: catalytic reduction, anaerobic, pH 7.4 tris buffer, 30° C., 24 h, absorbance at 550 nm
Protocol: DNA Alkylation Screening of Series 1-9. The extent of DNA reductive alkylation was determined by catalytic reduction of the aziridinyl quinones in the presence of 600 bp calf thymus DNA. Oxidative workup afforded DNA colored blue as a result of the aminoquinone chromophore. […] The anaerobic conditions employed for DNA reductive alkylation assays is not meant to mimic the environment of tumor cells. These conditions do permit an accurate assessment of the structural requirements for DNA alkylation by the hydroquinone species. To be sure, agents incapable of akylating DNA under these ideal conditions will not do so in the typical cellular environment.
Alkylation of DNA by Reduced Indoloquinones. To a mixture of 1-2 mg of sonicated (600 bp) calf thymus DNA in 2.0 mL of 0.05 M of pH 7.4 tris buffer and 2 mg of Pd on carbon was added a five-to-one base pair equivalent amount of the indoloquinone dissolved in 0.5 mL of dimethylsulfoxide. The resulting solution was degassed under argon for 30 min., after which the mixture was purged with H2 for 10 min. The solution was then purged with argon for 10 min. and placed in a 30° C. bath for 24 h. The reaction was opened to the air and the catalyst was removed with a Millex-PF […] syringe filter. The filtrate was adjusted to 0.3 M acetate with a 3 M stock solution of pH 5.1 acetate and then diluted with two volumes of ethanol. The mixture was chilled at −20° C. for 12 h and the DNA pellet collected by centrifuging at 12,000 g for 20 min. The pellet was redissolved in water and then precipitated and centrifuged again. The resulting blue or red pellet was suspended in ethanol, centrifuged, and dried. The dried pellet was weighed and dissolved in 1 mL of double distilled water resulting in a clear colored solution with […]max˜550 nm, □˜750 M^−1 cm^−1. This is the chromophore of the aminoquinone resulting from nucleophile-mediated opening of the aziridine ring. Model 2′-chloroethyl aminoquinones for extinction coefficient determination were prepared by treatment of the indoloquinone with HCl. {Skibo, E. B. and Xing, C., Chemistry and DNA Alkylation Reactions of Aziridinyl Quinones: Development of an Efficient Alkylating Agent of the Phosphate Backbone, Biochemistry, 1998, 37, 15199-15213}.

[1] = system: National Cancer Institute 60-cell line; experiment: NCI 60-cell line in vitro screen (average cytotoxicity and cancer specificity); conditions: for Average Log LC50 60-Cell Line: mean over 60 cell lines, ± value measures cancer specificity
Protocol: Cytotoxic and Cytostatic Screening of Series 1-9. […] The cytostatic parameters include GI50 and TGI, which are the concentrations of drug required for 50% growth inhibition and total growth inhibition, respectively. The cytotoxic parameter is the LC50, which is the concentration required for 50% cell kill.
4. […] Cancer specificity is measured from the ± value under the “Average Log LC50 60-Cell Line” heading of Table 5. A ± value greater than 2 indicates a greater than 100-fold higher/lower cytotoxicity in some histological cancer types compared to the mean cytotoxicity.
The DT-diaphorase levels in the National Cancer Institute 60-cell line in vitro screen have been determined and correlated with the cytotoxicity of antitumor agents activated by 2-electron reduction. {Fitzsimmons, S. A., Workman, P., Grever, M., Paull, K., Camalier, R., and Lewis, A. D., Reductase Enzyme Expression Across the National Cancer Institute Tumor Cell Line Panel: Correlation with Sensitivity To Mitomycin C and EO9, J. Natl. Cancer Inst., 1996, 88, 259-69}. Sensitive cancers usually include NSC lung and colon cancers (and to a lesser extent CNS, melanoma, and renal cancers) by virtue of their elevated DT-diaphorase levels.

[2] = system: NCI-H460 non-small-lung cancer cell line; experiment: NCI In Vitro Cell Line Screening, NSC H460 cell line; assay type: cell-based; conditions: for GI50 / CC50: Homo sapiens; for GI50: NCI-H460, concentration for 50% growth inhibition, read-out: Log GI50 NSC H460 (converted); for CC50: NCI-H460, read-out: Log LC50 NSC H460, concentration for 50% cell kill (converted); for Log TGI NSC H460: concentration for total growth inhibition; for Log GI50 NSC H460: concentration for 50% growth inhibition
Description: Cytotoxic and Cytostatic Screening of Series 1-9.

B16 melanoma = experiment: animal or person; assay type: in vivo; conditions: for In vivo T/C (Treated/Control) / response vs control in vivo at 2 mg/kg: T/C at day 25, <40% active; for response vs control in vivo at 2 mg/kg: Mus musculus, B16, 600 h, read-out: In vivo T/C (Treated/Control)
Description: Shown in Tables 6 and 7 are B16 melanoma syngraft assays {Griswold, D. P., Consideration of the Subcutaneously Implanted B16 Melanoma as a Screening Model for Potential Anticancer Agents, Cancer Chemother Reports, 1972, 3, 315-324} of some members of Series 1-9, as well as related compounds previously reported from this laboratory. {Xing, C. G., Wu, P., Skibo, E. B., and Dorr, R. T., Design of cancer-specific antitumor agents based on aziridlinylcyclopent[b]indoloquinones, J. Med. Chem., 2000, 43, 457-466}. Each agent was evaluated at three doses in C57/bl mice: 2, 3 or 5 mg/kg/day, on days 1, 5, and 9 after subcutaneous tumor implantation of 10^5 cells in the front flank on day 0. “Toxic” means that there was early lethality, or ≧50% lethality prior to any deaths in the control group. The treated over control values (T/C) were measured at day 25 of the study. A T/C value <40% is considered active.
In vivo Evaluation. The B-16 melanoma in C57/bl mice syngraft model was employed to determine in vivo activity. {Griswold, D. P., Consideration of the Subcutaneously Implanted B16 Melanoma as a Screening Model for Potential Anticancer Agents, Cancer Chemother Reports, 1972, 3, 315-324}. Each agent was evaluated at three doses: 2, 3 or 5 mg/kg/day, on days 1, 5, and 9 after subcutaneous tumor implantation of 10^5 cells in the front flank on day 0. “Toxic” means that there was early lethality, or ≧50% lethality prior to any deaths in the control group. The treated over control values (T/C) were measured at day 25 of the study. A T/C value<40% is considered active. […] The control was obtained with drug-free animals.

SMILES	melting point	DNA alkylation percentage (600 bp calf thymus DNA)	Average Log LC50 60-Cell Line [1]	GI50 [2]	CC50 [2]	Log TGI NSC H460 [2]	In vivo T/C (Treated/Control) (B16 melanoma; 5 mg/Kg/Day on days 1, 5, 9)	other results
CC(=O)OC1CCc2c1[nH]c1c2C(=O)C(N2CC2)=CC1=O (stereo not drawn) [Compound 1b, 3-Acetoxy-7-aziridinyl-1,2,3,4-tetrahydrocyclopent[b]indole-5,8-dione]	165 °C	34%						
CC(=O)OC1CCc2c3c(n(C(C)=O)c21)C(=O)C=C(N1CC1)C3=O (stereo not drawn) [Compound 1c, 7-Aziridinyl-3-acetoxy-4-acetyl-1,2,3,4-tetrahydrocyclopent[b]indole-5,8-dione]	140 °C							
CC(=O)OC1CCc2c1[nH]c1c2C(=O)C(N2CC2)=C(C)C1=O (stereo not drawn) [Compound 2b, 3-Acetoxy-7-aziridinyl-6-methyl-1,2,3,4-tetrahydrocyclopent[b]indole-5,8-dione]	165 °C	21%						
CC(=O)OC1CCc2c3c(n(C(C)=O)c21)C(=O)C(C)=C(N1CC1)C3=O (stereo not drawn) [Compound 2c, 7-Aziridinyl-3-acetoxy-4-acetyl-6-methyl-1,2,3,4-tetrahydrocyclopent[b]indole-5,8-dione]	156 °C							
O=C1C(N2CC2)=CC(=O)c2c1[nH]c1c2CCC1O (stereo not drawn) [Compound 3a, 6-Aziridinyl-3-hydroxy-1,2,3,4-tetrahydrocyclopent[b]indole-5,8-dione]		30%	−5.59 ± 1.95	0.00724 µM	1.78 µM	−7.24		cytostatic/cytotoxic activity versus histological cancer type (in words) [1]: significant cytostatic/cytotoxic activity
CC(=O)OC1CCc2c1[nH]c1c2C(=O)C(C)=C(N2CC2)C1=O (stereo not drawn) [Compound 4b]		44%	−4.67 ± 1.04	0.112 µM	1.23 µM	−6.17		± value of Average Log LC50 60-Cell Line [1]: ~1
CC(=O)OC1CCc2c3c(n(C(C)=O)c21)C(=O)C(N1CC1)=C(C)C3=O (stereo not drawn) [Compound 4c]		9%	−4.60 ± 1.12 and −4.49 ± 1.31				15%	In vivo T/C (Treated/Control) (B16 melanoma; 2 mg/Kg/Day on days 1, 5, 9): 37%; In vivo T/C (Treated/Control) (B16 melanoma; 3 mg/Kg/Day on days 1, 5, 9): 15%; in vivo antitumor activity (in words) (B16 melanoma; 2, 3 or 5 mg/kg/day): active at all doses; in vivo toxicity (in words) (B16 melanoma; 2, 3 or 5 mg/kg/day): without any toxicity
CC1=C(N2CC2)C(=O)c2c(c3c(n2C)C(O)CC3)C1=O (stereo not drawn) [Compound 5a, 6-Aziridinyl-4,7-dimethyl-3-Hydroxy-1,2,3,4-tetrahydrocyclopent[b]indole-5,8-dione]		0.3%		1.26 µM	50.1 µM	−5.12		cytostatic/cytotoxic activity versus histological cancer type (in words) [1]: inactive against all histological cancer types; CC50 ([1]; Homo sapiens, 60 cell, read-out: Average Log LC50 60-Cell Line (converted)): ≥ 100 µM; cytostatic and cytotoxic activity (−log) [2]: 5-6
CC(=O)OC1CCc2c3c(n(C)c21)C(=O)C(N1CC1)=C(C)C3=O (stereo not drawn) [Compound 5b]	157 °C							
Cn1c(CO)c(CO)c2c1C(=O)C=C(N1CC1)C2=O [Compound 6b, 5-Aziridinyl-2,3-di(hydroxymethyl)-1-methylindole-4,7-dione]		3.8%	−5.35 ± 2.65 and −5.50 ± 2.5	0.01 µM		−8	Toxic (“Toxic” means ≧ 50% lethality before any control growth deaths)	In vivo T/C (Treated/Control) (B16 melanoma; 2 mg/Kg/Day on days 1, 5, 9): Toxic (“Toxic” means ≧ 50% lethality before any control growth deaths); In vivo T/C (Treated/Control) (B16 melanoma; 3 mg/Kg/Day on days 1, 5, 9): Toxic (“Toxic” means ≧ 50% lethality before any control growth deaths)
CC1=C(N2CC2)C(=O)c2c([nH]c(CO)c2CO)C1=O [Compound 7a, 5-Aziridinyl-2,3-di(hydroxymethyl)-6-methylindole-4,7-dione]		2%	−5.54 ± 1.89	0.01 µM	1.17 µM	−7.49	Toxic (“Toxic” means ≧ 50% lethality before any control growth deaths)	cytostatic/cytotoxic activity versus histological cancer type (in words) [1]: significant cytotoxic and cytostatic properties; In vivo T/C (Treated/Control) (B16 melanoma; 3 mg/Kg/Day on days 1, 5, 9): Toxic (“Toxic” means ≧ 50% lethality before any control growth deaths); response vs control in vivo at 2 mg/kg (B16 melanoma; 2 mg/Kg/Day on days 1, 5, 9): 36%
CC1=C(N2CC2)C(=O)c2c(CO)c(CO)n(C)c2C1=O [Compound 7c, 5-Aziridinyl-2,3-di(hydroxymethyl)-1,6-dimethylindole-4,7-dione]	165 °C	0%						DNA alkylation (in words) (600 bp calf thymus DNA): complete loss of DNA alkylation
CC(=O)OCc1[nH]c2c(c1COC(C)=O)C(=O)C(C)=C(N1CC1)C2=O [Compound 8b, 6-Aziridinyl-2,3-di(acetoxymethyl)-5-methylindole-4,7-dione]		37%	−4.52 ± 1.7 and −4.61 ± 2.5	0.0355 µM		−6.75 and −6.71	Toxic (“Toxic” means ≧ 50% lethality before any control growth deaths)	Log GI50 NSC H460 [2]: −7.63; DNA alkylation (in words) (600 bp calf thymus DNA): high DNA alkylation percentages; In vivo T/C (Treated/Control) (B16 melanoma; 3 mg/Kg/Day on days 1, 5, 9): Toxic (“Toxic” means ≧ 50% lethality before any control growth deaths); response vs control in vivo at 2 mg/kg (B16 melanoma; 2 mg/Kg/Day on days 1, 5, 9): 74%
CC1=C(N2CC2)C(=O)c2c(c(CO)c(CO)n2C)C1=O [Compound 8c, 6-Aziridinyl-2,3-di(hydroxymethyl)-1,5-dimethylindol-4,7-dione]		0%	−4.61 ± 1.64 and −4.67 ± 2.48	0.0389 µM	0.955 µM	−6.66	Toxic (“Toxic” means ≧ 50% lethality before any control growth deaths)	Log GI50 NSC H460 [2]: −7.27; Log LC50 NSC H460 ([2]; human): −6.21; DNA alkylation (in words) (600 bp calf thymus DNA): complete loss of DNA alkylation
O=C1C(N2CC2)=CC(=O)c2c1[nH]c(CO)c2CO [Compound 9a, 6-Aziridinyl-2,3-di(hydroxymethyl)indole-4,7-dione]		3.4%	−5.07 ± 1.43	0.138 µM	11.7 µM	−5.94		
